Patent EP1247803A2, “Indolinone compounds suitable for modulation of protein kinases” (Sugen, Inc., priority 1996, dated 1998)

Columns and labels:
FLK-1 receptor = molecular target: T1, FLK-1 receptor (Mus musculus, UniProt P35918); assay: FLK-1 ELISA (kinase activity of the FLK-1 receptor in FLK-1/NIH3T3 cells, VEGF stimulated); assay type: cell-based; set-up: concentration or dose not given beside the values
T1 construct: expressed in transfected cells; host or cells: NIH3T3 C7#3
Summary of the method: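 NIH3T3 C7#3 cells expressing FLK-1 were seeded at 25.000 cells/well, serum-starved overnight in 0.1% FBS, then treated with compound for two hours at 37°C (final DMSO 0.5%) before VEGF stimulation. Receptor was captured on anti-rabbit IgG-coated ELISA plates bearing affinity-purified anti-FLK-1 antiserum.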

MET = MET biochemical kinase assay; set-up: species or system human; concentration or dose not given beside the values
Summary of the method: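 Lysate-derived MET, or chimeric receptors, is immobilised on plates through an antibody to the human MET cytoplasmic region. Compounds are added along with kinase buffer supplying ATP and divalent metal ions, and receptor autophosphorylation is quantified by anti-phosphotyrosine ELISA.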

T1 sequence (P35918 20-1345): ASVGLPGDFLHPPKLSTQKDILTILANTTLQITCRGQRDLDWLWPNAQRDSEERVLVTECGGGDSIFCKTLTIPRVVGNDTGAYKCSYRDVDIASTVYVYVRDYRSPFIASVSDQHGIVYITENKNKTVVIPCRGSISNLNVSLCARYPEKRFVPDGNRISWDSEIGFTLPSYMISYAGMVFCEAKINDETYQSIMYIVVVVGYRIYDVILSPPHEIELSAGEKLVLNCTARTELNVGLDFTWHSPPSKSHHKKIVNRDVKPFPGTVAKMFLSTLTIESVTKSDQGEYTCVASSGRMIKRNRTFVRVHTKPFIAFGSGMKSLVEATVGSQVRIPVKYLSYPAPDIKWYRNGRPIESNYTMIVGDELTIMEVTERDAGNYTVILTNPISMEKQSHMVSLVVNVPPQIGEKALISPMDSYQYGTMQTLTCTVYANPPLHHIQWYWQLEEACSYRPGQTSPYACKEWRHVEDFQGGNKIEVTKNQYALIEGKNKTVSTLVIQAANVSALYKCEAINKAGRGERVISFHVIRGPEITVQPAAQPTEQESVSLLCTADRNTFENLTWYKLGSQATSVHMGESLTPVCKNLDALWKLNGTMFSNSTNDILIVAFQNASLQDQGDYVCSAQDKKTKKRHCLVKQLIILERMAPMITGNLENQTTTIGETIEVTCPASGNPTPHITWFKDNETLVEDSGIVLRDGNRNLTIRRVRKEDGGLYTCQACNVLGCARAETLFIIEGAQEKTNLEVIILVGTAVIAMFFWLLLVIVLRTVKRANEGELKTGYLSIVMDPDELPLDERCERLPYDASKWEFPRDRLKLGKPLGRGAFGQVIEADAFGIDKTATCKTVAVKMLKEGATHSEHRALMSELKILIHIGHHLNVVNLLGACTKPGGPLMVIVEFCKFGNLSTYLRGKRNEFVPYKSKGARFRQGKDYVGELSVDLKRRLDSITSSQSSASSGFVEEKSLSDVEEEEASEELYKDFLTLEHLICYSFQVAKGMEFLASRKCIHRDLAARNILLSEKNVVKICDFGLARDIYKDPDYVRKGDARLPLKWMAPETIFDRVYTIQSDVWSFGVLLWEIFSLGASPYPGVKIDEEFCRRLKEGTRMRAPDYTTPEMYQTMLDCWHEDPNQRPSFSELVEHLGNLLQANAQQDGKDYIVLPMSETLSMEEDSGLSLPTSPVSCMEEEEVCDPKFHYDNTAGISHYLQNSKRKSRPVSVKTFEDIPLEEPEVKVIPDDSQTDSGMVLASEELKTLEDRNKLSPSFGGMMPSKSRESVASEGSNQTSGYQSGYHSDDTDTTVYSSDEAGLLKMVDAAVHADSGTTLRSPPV

Row | Structure (SMILES) | Fik Kinase %Inhibition (FLK-1 receptor) | Met Kinase % Inhibition (MET)
1 | O=C1Nc2c(Br)cc(Br)cc2C1=Cc1c[nH]c2ccccc12 [10717/A06] | -10.8% | 31.7%
2 | Cn1cccc1C=C1C(=O)Nc2ccc(CCCl)cc21 [10717/G04] | 0.8% | 10.9%
3 | O=C1Nc2ccc(CCCl)cc2C1=Cc1ccc(F)cc1 [10717/G05] | 5.3% | 4.7%
4 | O=C1Nc2ccc(CCCl)cc2C1=Cc1c[nH]c2ccccc12 [10717/G06] | 4.3% | 34.0%
5 | Cc1ccc(C=C2C(=O)Nc3ccc(CCCl)cc32)s1 [10717/G07] | -17.0% | 7.5%
6 | O=C1Nc2ccc(CCCl)cc2C1=Cc1ccc(Br)cc1 [10717/G08] | 1.9% | 10.9%
7 | O=C1Nc2ccc(CCCl)cc2C1=Cc1ccc[nH]1 [10717/G09] | -29.7% | 19.1%
8 | COc1cccc(O)c1C=C1C(=O)Nc2ccc(CCCl)cc21 [10717/G10] | 4.8% | 30.9%
9 | Cc1c(Br)ccc2c1C(=C1C(=O)Nc3ccc(F)cc31)C(=O)N2 [10726/C08] | 3.4% | 46.8%
10 | Cc1c(Br)ccc2c1C(=C1C(=O)Nc3ccccc31)C(=O)N2 [10726/C09] | 12.9% | 48.5%
11 | CCc1ccc(C=C2C(=O)Nc3ccc(Br)c(C)c32)s1 [10726/C10] | 5.5% | 36.7%
12 | COc1ccc(C=C2C(=O)Nc3ccc(Br)c(C)c32)cc1 [10726/C11] | -32.2% | 34.7%
13 | CCOC(=O)c1[nH]c(C=C2C(=O)Nc3ccc(S(=O)(=O)NC)cc32)c(C(=O)OC)c1C [10726/D03] | 21.6% | 52.1%
14 | CNS(=O)(=O)c1ccc2c(c1)C(=Cc1cc(C)c(O)c(C(C)(C)C)c1)C(=O)N2 [10726/D04] | 7.8% | 62.9%
15 | CNS(=O)(=O)c1ccc2c(c1)C(=Cc1ccc(Br)o1)C(=O)N2 [10726/D05] | 8.2% | 51.2%
16 | CNS(=O)(=O)c1ccc2c(c1)C(=Cc1cn(C)cc1C)C(=O)N2 [10726/D06] | 16.3% | 42.8%
17 | CNS(=O)(=O)c1ccc2c(c1)C(=Cc1cc(O)c3c(c1O)CCCC3)C(=O)N2 [10726/D07] | -26.9% | 84.6%
18 | CNS(=O)(=O)c1ccc2c(c1)C(=C1C(=O)Nc3ccc(F)cc31)C(=O)N2 [10726/D08] | 12.1% | 39.5%
19 | CNS(=O)(=O)c1ccc2c(c1)C(=C1C(=O)Nc3ccccc31)C(=O)N2 [10726/D09] | 14.4% | 45.7%
20 | CCc1ccc(C=C2C(=O)Nc3ccc(S(=O)(=O)NC)cc32)s1 [10726/D10] | 14.7% | 35.3%
21 | CNS(=O)(=O)c1ccc2c(c1)C(=Cc1ccc(OC)cc1)C(=O)N2 [10726/D11] | 10.5% | 9.6%
22 | CCOC(=O)c1[nH]c(C=C2C(=O)Nc3ccc(S(=O)(=O)Nc4ccc(C(F)(F)F)cc4)cc32)c(C(=O)OC)c1C [10726/E03] | -5.5% | 62.4%
23 | Cc1cc(C=C2C(=O)Nc3ccc(S(=O)(=O)Nc4ccc(C(F)(F)F)cc4)cc32)cc(C(C)(C)C)c1O [10726/E04] | 8.1% | 85.5%
24 | O=C1Nc2ccc(S(=O)(=O)Nc3ccc(C(F)(F)F)cc3)cc2C1=Cc1ccc(Br)o1 [10726/E05] | 8.1% | 71.0%
25 | Cc1cn(C)cc1C=C1C(=O)Nc2ccc(S(=O)(=O)Nc3ccc(C(F)(F)F)cc3)cc21 [10726/E06] | 6.2% | -7.4%
26 | O=C1Nc2ccc(S(=O)(=O)Nc3ccc(C(F)(F)F)cc3)cc2C1=Cc1cc(O)c2c(c1O)CCCC2 [10726/E07] | -40.0% | 84.0%

Row | Structure (SMILES) | Fik Kinase %Inhibition (FLK-1 receptor) | Met Kinase % Inhibition (MET)
27 | O=C1Nc2ccc(F)cc2C1=C1C(=O)Nc2ccc(S(=O)(=O)Nc3ccc(C(F)(F)F)cc3)cc21 [10726/E08] | 4.1% | 58.9%
28 | O=C1Nc2ccccc2C1=C1C(=O)Nc2ccc(S(=O)(=O)Nc3ccc(C(F)(F)F)cc3)cc21 [10726/E09] | 9.9% | 50.3%
29 | CCc1ccc(C=C2C(=O)Nc3ccc(S(=O)(=O)Nc4ccc(C(F)(F)F)cc4)cc32)s1 [10726/E10] | 16.5% | 41.5%
30 | COc1ccc(C=C2C(=O)Nc3ccc(S(=O)(=O)Nc4ccc(C(F)(F)F)cc4)cc32)cc1 [10726/E11] | 16.2% | 34.5%
31 | CCOC(=O)c1[nH]c(C=C2C(=O)Nc3ccc(S(=O)(=O)N4CCOCC4)cc32)c(C(=O)OC)c1C [10726/F03] | 8.3% | 54.1%
32 | Cc1cc(C=C2C(=O)Nc3ccc(S(=O)(=O)N4CCOCC4)cc32)cc(C(C)(C)C)c1O [10726/F04] | 31.5% | 93.5%
33 | O=C1Nc2ccc(S(=O)(=O)N3CCOCC3)cc2C1=Cc1ccc(Br)o1 [10726/F05] | 8.9% | 51.2%
34 | Cc1cn(C)cc1C=C1C(=O)Nc2ccc(S(=O)(=O)N3CCOCC3)cc21 [10726/F06] | 17.7% | 16.2%
35 | O=C1Nc2ccc(S(=O)(=O)N3CCOCC3)cc2C1=Cc1cc(O)c2c(c1O)CCCC2 [10726/F07] | 9.6% | 96.1%
36 | O=C1Nc2ccc(F)cc2C1=C1C(=O)Nc2ccc(S(=O)(=O)N3CCOCC3)cc21 [10726/F08] | 15.3% | 67.3%
37 | O=C1Nc2ccccc2C1=C1C(=O)Nc2ccc(S(=O)(=O)N3CCOCC3)cc21 [10726/F09] | 9.6% | 66.8%
38 | CCc1ccc(C=C2C(=O)Nc3ccc(S(=O)(=O)N4CCOCC4)cc32)s1 [10726/F10] | 7.0% | 51.4%
39 | COc1ccc(C=C2C(=O)Nc3ccc(S(=O)(=O)N4CCOCC4)cc32)cc1 [10726/F11] | 13.6% | 57.6%
40 | CCOC(=O)c1[nH]c(C=C2C(=O)Nc3ccc(CCCl)cc32)c(C(=O)OC)c1C [10726/G03] | 11.3% | 26.8%
41 | Cc1cc(C=C2C(=O)Nc3ccc(CCCl)cc32)cc(C(C)(C)C)c1O [10726/G04] | 9.7% | 72.8%
42 | O=C1Nc2ccc(CCCl)cc2C1=Cc1ccc(Br)o1 [10726/G05] | 14.9% | 81.1%
43 | Cc1cn(C)cc1C=C1C(=O)Nc2ccc(CCCl)cc21 [10726/G06] | 7.0% | 19.9%
44 | O=C1Nc2ccc(CCCl)cc2C1=Cc1cc(O)c2c(c1O)CCCC2 [10726/G07] | -13.7% | 94.8%
45 | O=C1Nc2ccc(F)cc2C1=C1C(=O)Nc2ccc(CCCl)cc21 [10726/G08] | 2.9% | 39.1%
46 | O=C1Nc2ccccc2C1=C1C(=O)Nc2ccc(CCCl)cc21 [10726/G09] | 3.6% | 42.4%
47 | CCc1ccc(C=C2C(=O)Nc3ccc(CCCl)cc32)s1 [10726/G10] | 10.5% | 26.8%
48 | COc1ccc(C=C2C(=O)Nc3ccc(CCCl)cc32)cc1 [10726/G11] | 9.1% | 11.8%
49 | CCN(CC)c1ccc(C=C2C(=O)Nc3c(Br)cc(Br)cc32)cc1 [10727/A02] | -1.3% | 52.0%
50 | CCc1cc(CC)c(C=C2C(=O)Nc3c(Br)cc(Br)cc32)[nH]1 [10727/A03] | 6.3% | 40.7%
51 | O=C1Nc2c(Br)cc(Br)cc2C1=Cc1cc(Cl)cc(Br)c1O [10727/A04] | -4.6% | 80.9%
